Test results taken from patent US11324798B2, “Materials and methods for treatment of inflammation” (CYTOGEL PHARMA, LLC, priority 2010, dated 2022).

Tested on: mu opiate receptor
Test: Binding to the mu opiate receptor

With H-Tyr-Pro-Trp-Phe-NH2 [SEQ ID NO:1] the “Potency for the mu opiate receptor” value was “very potent”.
